Here are results for one compound from patent US12661410B2, “Compounds for targeted degradation of RET” (C4 Therapeutics, Inc., priority 2020, dated 2026).

One assay deals with T1, RET(KD: 658-1114 G810R) (Homo sapiens, UniProt P07949, G810R).
T1 construct: 658-1114; expressed in transfected cells; host or cells: 293T.165 (293T cells, generated in-house)
T1 sequence (P07949 658-1114 G810R): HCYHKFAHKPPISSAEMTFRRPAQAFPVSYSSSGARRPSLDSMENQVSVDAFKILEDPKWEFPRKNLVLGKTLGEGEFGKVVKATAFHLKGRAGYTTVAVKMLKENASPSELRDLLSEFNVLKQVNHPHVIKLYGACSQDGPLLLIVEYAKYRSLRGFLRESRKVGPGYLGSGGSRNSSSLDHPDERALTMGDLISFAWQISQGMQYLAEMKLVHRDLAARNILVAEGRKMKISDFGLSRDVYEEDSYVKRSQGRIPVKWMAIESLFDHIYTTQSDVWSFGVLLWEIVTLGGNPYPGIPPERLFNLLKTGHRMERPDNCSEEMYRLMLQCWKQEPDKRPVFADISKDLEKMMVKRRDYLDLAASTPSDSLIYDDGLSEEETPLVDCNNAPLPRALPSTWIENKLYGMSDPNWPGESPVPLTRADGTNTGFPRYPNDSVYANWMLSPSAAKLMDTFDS
As to the kind of experiment: HiBiT-Degradation, RET G810R degradation assay (Nano-Glo HiBiT Lytic), 293T.165 cells. The settings on record: for Emax / DC50: 6.0 hours. The format is cell-based. A digest of the protocol: (§1)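 Cells were plated and dosed with an 11-point half-log series (highest 10 μM) in duplicate. After 6 hours they were lysed with HiBiT lytic detection reagent and luminescence measured. DC50 and percent remaining protein (Emax) came from the dose-response curves.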

A further assay deals with T2, RET (658-1114) (Homo sapiens, UniProt P07949).
T2 construct: 658-1114; expressed in transfected cells; host or cells: 293T.144 (293T cells, generated in-house)
T2 sequence (P07949 658-1114): T1 sequence (P07949 658-1114 G810R) with R153G
The experiment in a line: HiBiT-Degradation, RET wild-type degradation assay (Nano-Glo HiBiT Lytic), 293T.144 cells. The format is cell-based. The settings on record: RET wild-type. A digest of the protocol:
as §1

Changes are numbered by the printed parent chain. Read-outs that look alike come from different tables or passages of the source.

Consider `CCC1(C(=O)NC(C)C)CCN(c2ccc(-c3nc(-c4cnn(C5CCN(C(=O)CC6(O)CCN(c7ccc(NC8CCC(=O)NC8=O)cc7)CC6)CC5)c4)cn4ncc(C#N)c34)cn2)CC1` (centres unmarked) [Compound 85, 1-[5-[3-cyano-6-[1-[1-[2-[1-[4-[(2,6-dioxo-3-piperidyl)amino]phenyl]-4-hydroxy-4-piperidyl]acetyl]-4-piperidyl]pyrazol-4-yl]pyrazolo[1,5-a]pyrazin-4-yl]-2-pyridyl]-4-ethyl-N-isopropyl-piperidine-4-carboxamide], for which the Emax is below 50% at RET(KD: 658-1114 G810R) (% remaining protein, read-out: 293T.165 RET(KD: 658-1114 G810R) 6.0 hours (Emax)); below 50% on RET(KD: 658-1114 G810R) (RET G810R, read-out: HiBiT-Degradation 293T.165 RET(KD: 658-1114 G810R) 6.0 hours (Emax)); below 30% at RET (658-1114) (6.0 hours, read-out: HiBiT-Degradation 293T.144 RET (658-1114) 6.0 hours (Emax)). Moreover, the DC50 on RET(KD: 658-1114 G810R) (half-maximal degradation concentration, read-out: 293T.165 RET(KD: 658-1114 G810R) 6.0 hours (DC50)) was below 100 nM; at RET(KD: 658-1114 G810R) (RET G810R, read-out: HiBiT-Degradation 293T.165 RET(KD: 658-1114 G810R) 6.0 hours (DC50)) it was below 100 nM; at RET (658-1114) (6.0 hours, read-out: HiBiT-Degradation 293T.144 RET (658-1114) 6.0 hours (DC50)) it was below 50 nM. The “HiBiT-Degradation 293T.165 RET(KD: 658-1114 G810R) 6.0 hours (IP) [nM]” value on RET(KD: 658-1114 G810R) (RET G810R) is reported as “++++ (< 50 nM = ++++)”. Also, the “HiBiT-Degradation 293T.144 RET (658-1114) 6.0 hours (IP) [nM]” value on RET (658-1114) is on record as “++++ (< 50 nM = ++++)”.
